Values quoted from earlier work as cited in patent US9817001B2, “Methods for determining LDL cholesterol treatment” (Boston Heart Diagnostics Corporation, priority 2008, dated 2017).

Test system: HDL particle profile (α-1 HDL, preβ-1 HDL)
Details: for effect on preβ-1 HDL level: by decreasing CETP activity; for effect on apoA-I kinetics: in vivo

Structure (SMILES) | effect on preβ-1 HDL level | effect on apoA-I kinetics | statin effectiveness to change the HDL particle profile beneficially (statin therapy, decreasing pre-β1 and increasing α-1)
CC(C)c1nc(N(C)S(C)(=O)=O)nc(-c2ccc(F)cc2)c1/C=C/[C@@H](O)C[C@@H](O)CC(=O)O [Rosuvastatin, rosuvastatin] | significantly decrease | little or no effect | –
CC(C)c1c(C(=O)Nc2ccccc2)c(-c2ccccc2)c(-c2ccc(F)cc2)n1CC[C@@H](O)C[C@@H](O)CC(=O)O [atorvastatin] | significantly decrease | little or no effect | –
CC[C@H](C)C(=O)O[C@H]1C[C@@H](C)C=C2C=C[C@H](C)[C@H](CC[C@@H]3C[C@@H](O)CC(=O)O3)[C@H]21 [lovastatin] | – | – | almost no change
